Measurements from patent US20260042755A1, “GPR6 INVERSE AGONISTS” (MapLight Therapeutics, Inc., priority 2022, published 2026).

Assays:
GPR6 = molecular target: T1, GPR6 (Homo sapiens, UniProt P46095); assay: GPR6 antagonist functional cAMP assay (LANCE Ultra cAMP TR-FRET, CHO cells stably expressing GPR6); assay type: cell-based
T1 construct: expressed in transfected cells; host or cells: CHO cells
Procedure, shortened: (§1)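 Stable CHO-GPR6 or CHO-GPR3 cells (10,000/well) in Krebs-Ringer buffer with 0.1% BSA and 150 μM Ro 20-1724 were exposed to compounds for 45 min at 37° C (0.1% DMSO). cAMP read by LANCE Ultra TR-FRET; IC50 from 4-parameter fit normalized to DMSO and reference compounds.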

GPR3 = molecular target: T2, GPR3 (Homo sapiens, UniProt P46089); assay: GPR3 antagonist functional cAMP assay (LANCE Ultra cAMP TR-FRET, CHO cells stably expressing GPR3); assay type: cell-based
T2 construct: expressed in transfected cells; host or cells: CHO cells
Procedure, shortened: as §1

[1] = CHO cells stably expressing GPR6, cAMP assay
[2] = CHO cells stably expressing GPR3, cAMP assay
[3] = CHO cells stably expressing GPR6, cAMP assay (Example 24)
[4] = CHO cells stably expressing GPR3, cAMP assay (Example 24)
[5] = procedure as described in Example 24

T2 sequence (P46089 whole entry, species assumed): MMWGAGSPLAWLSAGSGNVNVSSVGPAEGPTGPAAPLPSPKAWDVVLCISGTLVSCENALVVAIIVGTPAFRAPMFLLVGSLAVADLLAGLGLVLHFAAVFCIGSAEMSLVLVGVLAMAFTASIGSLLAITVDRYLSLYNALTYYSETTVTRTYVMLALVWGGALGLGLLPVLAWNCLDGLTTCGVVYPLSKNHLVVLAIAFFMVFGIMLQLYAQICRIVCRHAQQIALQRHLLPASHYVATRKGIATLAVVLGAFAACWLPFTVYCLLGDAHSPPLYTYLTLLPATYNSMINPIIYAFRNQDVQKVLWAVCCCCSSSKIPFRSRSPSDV
T1 sequence (P46095 whole entry): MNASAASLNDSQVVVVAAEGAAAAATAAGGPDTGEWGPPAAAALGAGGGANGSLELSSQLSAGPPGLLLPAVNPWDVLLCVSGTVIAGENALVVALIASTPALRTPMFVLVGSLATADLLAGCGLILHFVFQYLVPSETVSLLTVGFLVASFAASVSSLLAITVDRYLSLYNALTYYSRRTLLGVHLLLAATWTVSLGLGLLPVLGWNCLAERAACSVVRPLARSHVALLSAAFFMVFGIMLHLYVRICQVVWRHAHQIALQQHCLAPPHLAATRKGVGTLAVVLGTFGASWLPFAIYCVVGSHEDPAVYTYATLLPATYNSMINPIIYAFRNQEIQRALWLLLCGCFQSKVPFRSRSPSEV

IC50 (GPR6; procedure of Example 24) | IC50 (GPR3; procedure of Example 24) | Compound | other results
 |  | CC(=O)N1CCc2nc(N3CCC(Oc4ccc(F)cc4F)CC3)c(C3CCN(CC(F)(F)F)CC3)nc2C1 [Compound 496, 1-{2-[4-(2,4-difluorophenoxy)-1-piperidyl]-3-[1-(2,2,2-trifluoroethyl)-4-piperidyl]-5,6,7,8-tetrahydro-1,4,6-triaza-6-naphthyl}-1-ethanone] | IC50 (GPR6; [1]): 1000 to 30000 nM; IC50 (GPR3; [2]): 1000 to 30000 nM
 |  | CC(O)C(O)c1cc2nc(N3CCC(Oc4ccc(F)cc4F)CC3)c(-c3cnn(C)c3)nc2cn1 (centres unmarked) [Compound 401, 1-{2-[4-(2,4-difluorophenoxy)piperidin-1-yl]-3-(1-methyl-1H-pyrazol-4-yl)pyrido[3,4-b]pyrazin-7-yl}propane-1,2-diol] | IC50 (GPR6; [3]): 100 to 1000 nM; IC50 (GPR3; [4]): 1000 to 30000 nM
 |  | CC(C)(O)[C@H](O)c1cc2nc(N3CCN(Cc4ccc(F)cc4F)CC3)c(-c3cnn(C(F)F)c3)nc2cn1 (single isomer, unassigned) [Compound 396] | IC50 (GPR6; [3]): 100 to 1000 nM; IC50 (GPR3; [4]): 1000 to 30000 nM
1000 to 30000 nM | 1000 to 30000 nM | Fc1ccc(OC2CC=C(c3nc4ccncc4nc3-c3ncco3)CC2)c(F)c1 (centres unmarked) [Compound 301, 2-{2-[4-(2,4-difluorophenoxy)cyclohex-1-en-1-yl]pyrido[3,4-b]pyrazin-3-yl}-1,3-oxazole] | 
 |  | CC(=O)N1CCc2nc(N3CCC(Oc4cc(C#N)ccc4F)CC3)c(-c3cnn(C)c3)nc2C1 [Compound 424, 3-({1-[6-acetyl-3-(1-methyl-1H-pyrazol-4-yl)-5H,6H,7H,8H-pyrido[3,4-b]pyrazin-2-yl]piperidin-4-yl}oxy)-4-fluorobenzonitrile] | IC50 (GPR6; [3]): 1000 to 30000 nM; IC50 (GPR3; [4]): 1000 to 30000 nM
100 to 1000 nM | 1000 to 30000 nM | CC(C)(O)C(C)(O)c1cc2nc(N3CCC(Oc4ccc(F)cc4F)CC3)c(-c3cnn(CF)c3)nc2cn1 (centres unmarked) [Compound 636, 2-{2-[4-(2,4-difluorophenoxy)-1-piperidyl]-3-[1-(fluoromethyl)-4-pyrazolyl]-1,4,6-triaza-7-naphthyl}-3-methyl-2,3-butanediol] | 
 |  | CC(=O)N1Cc2nc(-c3cnn(C)c3)c(N3CCC(Oc4ccc(F)cc4F)CC3)nc2C(C)C1 (centres unmarked) [Compound 540, 1-{2-[4-(2,4-difluorophenoxy)-1-piperidyl]-8-methyl-3-(1-methyl-4-pyrazolyl)-5,6,7,8-tetrahydro-1,4,6-triaza-6-naphthyl}-1-ethanone] | IC50 (GPR6; [1]): < 100 nM; IC50 (GPR3; [2]): 1000 to 30000 nM
 |  | CC(=O)N1CCc2nc(N3CCC(Oc4ccc(F)cc4F)CC3)c(-c3cnc[nH]3)nc2C1 [Compound 84, 1-{2-[4-(2,4-difluorophenoxy)piperidin-1-yl]-3-(1H-imidazol-5-yl)-5H,6H,7H,8H-pyrido[3,4-b]pyrazin-6-yl}ethan-1-one] | IC50 (GPR6; [3]): 1000 to 30000 nM; IC50 (GPR3; [4]): 1000 to 30000 nM
1000 to 30000 nM | 1000 to 30000 nM | CC(=O)N1CCc2nc(N3CCC(Oc4ccc(F)cc4F)CC3)c(-c3ccc4c(n3)OCC4)nc2C1 [Compound 326, 1-{2-[4-(2,4-difluorophenoxy)piperidin-1-yl]-3-{2H,3H-furo[2,3-b]pyridin-6-yl}-5H,6H,7H,8H-pyrido[3,4-b]pyrazin-6-yl}ethan-1-one] | 
 |  | CC(C)(O)[C@H](O)c1cc2nc(N3CCC(Oc4ccc(F)cc4F)CC3)c(-c3cnn(C(F)F)c3)nc2cn1 (single isomer, unassigned) [Compound 554] | IC50 (GPR6; [1]): < 100 nM; IC50 (GPR3; [2]): 1000 to 30000 nM
1000 to 30000 nM | 1000 to 30000 nM | COC1CCC(c2nc3c(nc2N2CCC(Oc4ccc(F)cc4F)CC2)CCN(C(C)=O)C3)C1 (centres unmarked) [Compound 279, 1-{2-[4-(2,4-difluorophenoxy)piperidin-1-yl]-3-(3-methoxycyclopentyl)-5H,6H,7H,8H-pyrido[3,4-b]pyrazin-6-yl}ethan-1-one] | 
100 to 1000 nM | 1000 to 30000 nM | COC[C@@](C)(O)c1cc2nc(N3CCC(Oc4ccc(F)cc4F)CC3)c(-c3cnn(C)c3)nc2cn1 (single isomer, unassigned) [Compound 615] | 
100 to 1000 nM | 1000 to 30000 nM | Cn1cc(-c2nc3cnc([C@@H](O)C(C)(C)F)cc3nc2N2CCC(Oc3ccc(F)cc3F)CC2)cn1 (single isomer, unassigned) [Compound 744] | 
< 100 nM | 1000 to 30000 nM | CCn1cc(-c2nc3cnc(N)cc3nc2N2CCC(Oc3ccc(F)cc3F)CC2)cn1 [Compound 294, 2-[4-(2,4-difluorophenoxy)piperidin-1-yl]-3-(1-ethyl-1H-pyrazol-4-yl)pyrido[3,4-b]pyrazin-7-amine] | 
100 to 1000 nM | 1000 to 30000 nM | CC(C)(O)[C@@H](O)c1cc2nc(-c3cnn(CF)c3)c(N3CCN(Cc4ccccc4F)CC3)nc2cn1 (single isomer, unassigned) [Compound 713] | 
100 to 1000 nM | 1000 to 30000 nM | CC(C)(O)[C@](C)(O)c1cc2nc(N3CCN(Cc4ccc(F)cc4F)CC3)c(-c3cnn(CF)c3)nc2cn1 (single isomer, unassigned) [Compound 649] | 

IC50 (GPR6; procedure of Example 24) | IC50 (GPR3; procedure of Example 24) | Compound | other results
 |  | COCn1cc(-c2nc3c(nc2N2CCC(Oc4ccc(F)cc4F)CC2)CCN(C(C)=O)C3)cn1 [Compound 14, 1-{2-[4-(2,4-difluorophenoxy)piperidin-1-yl]-3-[1-(methoxymethyl)-1H-pyrazol-4-yl]-5H,6H,7H,8H-pyrido[3,4-b]pyrazin-6-yl}ethan-1-one] | IC50 (GPR6; [5]): 100 to 1000 nM; IC50 (GPR3; [5]): 1000 to 30000 nM
1000 to 30000 nM | 1000 to 30000 nM | CC(=O)N1CCc2nc(N3CCN(Cc4ccc(Cl)cc4Cl)CC3)c(-c3cnn(C)c3)nc2C1 [Compound 350, 1-(2-{4-[(2,4-dichlorophenyl)methyl]piperazin-1-yl}-3-(1-methyl-1H-pyrazol-4-yl)-5H,6H,7H,8H-pyrido[3,4-b]pyrazin-6-yl)ethan-1-one] | 
 |  | CC(=O)N1CCc2nc(N3CCN(Cc4cccc(C#N)c4)CC3)c(-c3cnn(C)c3)nc2C1 [Compound 512, m-({4-[6-acetyl-3-(1-methyl-4-pyrazolyl)-5,6,7,8-tetrahydro-1,4,6-triaza-2-naphthyl]-1-piperazinyl}methyl)benzonitrile] | IC50 (GPR6; [1]): 1000 to 30000 nM; IC50 (GPR3; [2]): 1000 to 30000 nM
 |  | CC(=O)N1CCc2nc(N3CCC(Oc4ccc(F)cc4F)CC3)c(-c3cc[nH]c(=O)c3)nc2C1 [Compound 66, 4-{6-acetyl-2-[4-(2,4-difluorophenoxy)piperidin-1-yl]-5H,6H,7H,8H-pyrido[3,4-b]pyrazin-3-yl}-1,2-dihydropyridin-2-one] | IC50 (GPR6; [3]): 1000 to 30000 nM; IC50 (GPR3; [4]): 1000 to 30000 nM
 |  | CC(=O)N1CCc2nc(N3CCC(Oc4ccc(F)cc4F)CC3)c(-c3cnn(C4CNC4)c3)nc2C1 [Compound 134, 1-{3-[1-(azetidin-3-yl)-1H-pyrazol-4-yl]-2-[4-(2,4-difluorophenoxy)piperidin-1-yl]-5H,6H,7H,8H-pyrido[3,4-b]pyrazin-6-yl}ethan-1-one] | IC50 (GPR6; [3]): 1000 to 30000 nM; IC50 (GPR3; [4]): 1000 to 30000 nM
 |  | CC(=O)N1CCc2nc(N3CCC(Oc4cc(Cl)ccc4F)CC3)c(-c3cnn(C)c3)nc2C1 [Compound 457, 1-{2-[4-(5-chloro-2-fluorophenoxy)piperidin-1-yl]-3-(1-methyl-1H-pyrazol-4-yl)-5H,6H,7H,8H-pyrido[3,4-b]pyrazin-6-yl}ethan-1-one] | IC50 (GPR6; [3]): 100 to 1000 nM; IC50 (GPR3; [4]): 1000 to 30000 nM
100 to 1000 nM | 1000 to 30000 nM | Nc1cc2nc(-c3cnn(CF)c3)c(N3CCN(Cc4ccc(F)cc4F)CC3)nc2cn1 [Compound 794, 3-{4-[(2,4-difluorophenyl)methyl]-1-piperazinyl}-2-[1-(fluoromethyl)-4-pyrazolyl]-1,4,6-triaza-7-naphthylamine] | 
 |  | Cn1cc(-c2nc3cc(C(O)C(C)(C)O)ncc3nc2N2CCC(Oc3ccc(F)cc3F)CC2)cn1 (single isomer, unassigned) [Compound 562] | IC50 (GPR6; [1]): < 100 nM; IC50 (GPR3; [2]): 100 to 1000 nM
 |  | COC(CO)c1cc2nc(N3CCC(Oc4ccc(F)cc4F)CC3)c(-c3cnn(C)c3)nc2cn1 (centres unmarked) [Compound 438, 2-(2-(4-(2,4-difluorophenoxy)piperidin-1-yl)-3-(1-methyl-1H-pyrazol-4-yl)pyrido[3,4-b]pyrazin-7-yl)-2-methoxyethan-1-ol] | IC50 (GPR6; [3]): 100 to 1000 nM; IC50 (GPR3; [4]): 1000 to 30000 nM
100 to 1000 nM | 1000 to 30000 nM | Cn1cc(-c2nc3cnc(C(O)CN)cc3nc2N2CCC(Oc3ccc(F)cc3F)CC2)cn1 (centres unmarked) [Compound 309, 2-amino-1-(2-(4-(2,4-difluorophenoxy)piperidin-1-yl)-3-(1-methyl-1H-pyrazol-4-yl)pyrido[3,4-b]pyrazin-7-yl)ethan-1-ol] | 
1000 to 30000 nM | 1000 to 30000 nM | COC(=O)/C(C)=C/c1cc2nc(N3CCC(Oc4ccc(F)cc4F)CC3)c(-c3cnn(C)c3)nc2cn1 [Compound 734, methyl 3-{2-[4-(2,4-difluorophenoxy)-1-piperidyl]-3-(1-methyl-4-pyrazolyl)-1,4,6-triaza-7-naphthyl}methacrylate] | 
 |  | Cn1cc(-c2nc3cc(C(=O)C(C)(C)O)ncc3nc2N2CCN(Cc3ccc(F)cc3F)CC2)cn1 [Compound 563, 1-(3-{4-[(2,4-difluorophenyl)methyl]-1-piperazinyl}-2-(1-methyl-4-pyrazolyl)-1,4,6-triaza-7-naphthyl)-2-hydroxy-2-methyl-1-propanone] | IC50 (GPR6; [1]): 100 to 1000 nM; IC50 (GPR3; [2]): 1000 to 30000 nM
≥ 30000 nM | 1000 to 30000 nM | CC(=O)N1CCc2nc(N3CCN(C(=O)c4cc(F)cc(F)c4)CC3)c(-c3cnn(C)c3)nc2C1 [Compound 285, 1-{2-[4-(3,5-difluorobenzoyl)piperazin-1-yl]-3-(1-methyl-1H-pyrazol-4-yl)-5H,6H,7H,8H-pyrido[3,4-b]pyrazin-6-yl}ethan-1-one] | 
1000 to 30000 nM | 1000 to 30000 nM | CC(=O)N1CCc2nc(N3CCC(COc4cccc(F)c4)C3)c(-c3cnn(C)c3)nc2C1 (centres unmarked) [Compound 324, 1-(2-{3-[(3-fluorophenoxy)methyl]pyrrolidin-1-yl}-3-(1-methyl-1H-pyrazol-4-yl)-5H,6H,7H,8H-pyrido[3,4-b]pyrazin-6-yl)ethan-1-one] | 
100 to 1000 nM | 1000 to 30000 nM | CC(C)(O)[C@](C)(O)c1cc2nc(N3CCN(Cc4ccc(F)cc4F)CC3)c(-c3cnn(C4CC4)c3)nc2cn1 (single isomer, unassigned) [Compound 666] | 
